Test results published in patent publication US8710198B2, “Caprazene as a novel compound and derivatives thereof, and caprazol as a novel compound and derivatives thereof” (Meiji Seika Pharma Co., Ltd., priority 2003, dated 2014).

What was measured:
Type in all cases: cell-based
Micrococcus luteus FDA16 = assay: Minimum growth inhibitory concentration on agar culture medium by serial dilution method (Japanese Society of Chemotherapy)
Protocol: (§1) Minimum growth inhibitory concentrations (mcg/ml) of caprazene-1′″-amide derivatives of the formula (II) against some of microorganisms were measured on an agar culture medium by a serial dilution method according to the standard method as provided by Japanese Society of Chemotherapy. For the cultivation of Mycobacterium smegmatis (one of […]), however, there was used an agar culture medium with the addition of 1% glycerine (the same applies to in the following tests).
(§2) Minimum growth inhibitory concentrations (mcg/ml) of some of the caprazene-1′″-ester derivative of the formula (III) against some of microorganisms were measured on an agar culture medium by a serial dilution method according to the standard method as provided by Japanese Society of Chemotherapy.
(§3) Minimum growth inhibitory concentrations (mcg/ml) of some of the caprazol-1′″-amide derivative of the formula (V) against a variety of microorganisms were measured on an agar medium by a serial dilution method according to the standard method as provided by Japanese Society of Chemotherapy.
as §3, with “caprazol-1′″-amide-3′″-ester” for “caprazol-1′″-amide”, “(VI)” for “(V)”
as §3, with “caprazol-3′″-ester derivative or caprazol-1′″-ester-3′″-ester” for “caprazol-1′″-amide”, “(VII)” for “(V)”
(§4) Minimum growth inhibitory concentrations (mcg/ml) of some of the derivative of the formula (VIII) against a variety of microorganisms were measured on an agar medium by a serial dilution method according to the standard method as provided by Japanese Society of Chemotherapy.

[1] = system: Staphylococcus aureus FDA209P; assay: as above
Protocol: as §1, §2, §3
as §4, with “of the caprazol-1′″-amide-3′″-ester derivative of” for “of the derivative of”, “the formula (VI) against a” for “the formula (VIII) against a”
as §4, with “of the caprazol-3′″-ester derivative or caprazol-1′″-ester-3′″-ester derivative of” for “of the derivative of”, “the formula (VII) against a” for “the formula (VIII) against a”
as §4

[2] = system: Mycobacterium smegmatis ATCC607; assay: Minimum growth inhibitory concentration on agar culture medium with 1% glycerine by serial dilution method; conditions: agar culture medium with the addition of 1% glycerine
Protocol: as §1, §2, §3
as §4, with “of the caprazol-1′″-amide-3′″-ester derivative of” for “of the derivative of”, “the formula (VI) against a” for “the formula (VIII) against a”
as §4, with “of the caprazol-3′″-ester derivative or caprazol-1′″-ester-3′″-ester derivative of” for “of the derivative of”, “the formula (VII) against a” for “the formula (VIII) against a”

SMILES	Minimum growth inhibitory concentration (mcg/ml) against bacteria Micrococcus luteus FDA16 (Micrococcus luteus FDA16) [µg/mL]	Minimum growth inhibitory concentration (mcg/ml) against bacteria Staphylococcus aureus FDA209P [1] [µg/mL]	Minimum growth inhibitory concentration (mcg/ml) against bacteria Mycobacterium smegmatis ATCC607 [2] [µg/mL]
CCCc1ccc(NC(=O)C2=CCN(C)C(C(OC3OC(CN)C(O)C3O)C3OC(n4ccc(=O)[nH]c4=O)C(O)C3O)C(=O)N2C)cc1 (stereo not drawn) [Compound II-3]	3.13	25	12.5
CCCCCc1ccc(NC(=O)C2=CCN(C)C(C(OC3OC(CN)C(O)C3O)C3OC(n4ccc(=O)[nH]c4=O)C(O)C3O)C(=O)N2C)cc1 (stereo not drawn) [Compound II-5]	0.2	3.13	3.13
CCCCCCc1ccc(NC(=O)C2=CCN(C)C(C(OC3OC(CN)C(O)C3O)C3OC(n4ccc(=O)[nH]c4=O)C(O)C3O)C(=O)N2C)cc1 (stereo not drawn) [Compound II-6]	0.39	1.56	0.78
CCCCCCCc1ccc(NC(=O)C2=CCN(C)C(C(OC3OC(CN)C(O)C3O)C3OC(n4ccc(=O)[nH]c4=O)C(O)C3O)C(=O)N2C)cc1 (stereo not drawn) [Compound II-7]	<0.20	1.56	<0.20
CCCCCCCCCc1ccc(NC(=O)C2=CCN(C)C(C(OC3OC(CN)C(O)C3O)C3OC(n4ccc(=O)[nH]c4=O)C(O)C3O)C(=O)N2C)cc1 (stereo not drawn) [Compound II-9]	0.39	3.13	1.56
CCCCCCCCCCc1ccc(NC(=O)C2=CCN(C)C(C(OC3OC(CN)C(O)C3O)C3OC(n4ccc(=O)[nH]c4=O)C(O)C3O)C(=O)N2C)cc1 (stereo not drawn) [Compound II-10]	<0.20	3.13	3.13
CCCCCCCCCCCc1ccc(NC(=O)C2=CCN(C)C(C(OC3OC(CN)C(O)C3O)C3OC(n4ccc(=O)[nH]c4=O)C(O)C3O)C(=O)N2C)cc1 (stereo not drawn) [Compound II-11]	0.39	3.13	3.13
CCCCCCCCCCCCc1ccc(NC(=O)C2=CCN(C)C(C(OC3OC(CN)C(O)C3O)C3OC(n4ccc(=O)[nH]c4=O)C(O)C3O)C(=O)N2C)cc1 (stereo not drawn) [Compound II-12]	0.78	3.13	6.25
CCCCCCCCCCCCCc1ccc(NC(=O)C2=CCN(C)C(C(OC3OC(CN)C(O)C3O)C3OC(n4ccc(=O)[nH]c4=O)C(O)C3O)C(=O)N2C)cc1 (stereo not drawn) [Compound II-13]	1.56	3.13	12.5
CCCCCCCCCCCCCCc1ccc(NC(=O)C2=CCN(C)C(C(OC3OC(CN)C(O)C3O)C3OC(n4ccc(=O)[nH]c4=O)C(O)C3O)C(=O)N2C)cc1 (stereo not drawn) [Compound II-14]	3.13	6.25	25
CCCCCCOc1ccc(NC(=O)C2=CCN(C)C(C(OC3OC(CN)C(O)C3O)C3OC(n4ccc(=O)[nH]c4=O)C(O)C3O)C(=O)N2C)cc1 (stereo not drawn) [Compound II-20]	0.39	6.25	1.56
CCCCCCCCCOc1ccc(NC(=O)C2=CCN(C)C(C(OC3OC(CN)C(O)C3O)C3OC(n4ccc(=O)[nH]c4=O)C(O)C3O)C(=O)N2C)cc1 (stereo not drawn) [Compound II-23]	0.39	1.56	0.78
CCCCCCNC(=O)C1=CCN(C)C(C(OC2OC(CN)C(O)C2O)C2OC(n3ccc(=O)[nH]c3=O)C(O)C2O)C(=O)N1C (stereo not drawn) [Compound II-A]	3.13	>100	100
CCCCCCCNC(=O)C1=CCN(C)C(C(OC2OC(CN)C(O)C2O)C2OC(n3ccc(=O)[nH]c3=O)C(O)C2O)C(=O)N1C (stereo not drawn) [Compound II-B]	1.56	25	25
CCCCCCCCNC(=O)C1=CCN(C)C(C(OC2OC(CN)C(O)C2O)C2OC(n3ccc(=O)[nH]c3=O)C(O)C2O)C(=O)N1C (stereo not drawn) [Compound II-C]	0.78	6.25	12.5
CCCCCCCCCNC(=O)C1=CCN(C)C(C(OC2OC(CN)C(O)C2O)C2OC(n3ccc(=O)[nH]c3=O)C(O)C2O)C(=O)N1C (stereo not drawn) [Compound II-D]	0.39	6.25	3.13
CCCCCCCCCCNC(=O)C1=CCN(C)C(C(OC2OC(CN)C(O)C2O)C2OC(n3ccc(=O)[nH]c3=O)C(O)C2O)C(=O)N1C (stereo not drawn) [Compound II-E]	0.39	25	0.78
CCCCCCCCCCCNC(=O)C1=CCN(C)C(C(OC2OC(CN)C(O)C2O)C2OC(n3ccc(=O)[nH]c3=O)C(O)C2O)C(=O)N1C (stereo not drawn) [Compound II-F]	0.39	1.56	0.39
CCCCCCCCCCCCNC(=O)C1=CCN(C)C(C(OC2OC(CNC(=O)OC(C)(C)C)C(O)C2O)C2OC(n3ccc(=O)[nH]c3=O)C(O)C2O)C(=O)N1C (stereo not drawn) [Compound II-G-N-Boc]	50	50	50
CCCCCCCCCCCCNC(=O)C1=CCN(C)C(C(OC2OC(CN)C(O)C2O)C2OC(n3ccc(=O)[nH]c3=O)C(O)C2O)C(=O)N1C (stereo not drawn) [Compound II-G]	0.39	3.13	0.39
CCCCCCCCCCCCCNC(=O)C1=CCN(C)C(C(OC2OC(CNC(=O)OC(C)(C)C)C(O)C2O)C2OC(n3ccc(=O)[nH]c3=O)C(O)C2O)C(=O)N1C (stereo not drawn) [Compound II-H-N-Boc]	12.5	25	25
CCCCCCCCCCCCCNC(=O)C1=CCN(C)C(C(OC2OC(CN)C(O)C2O)C2OC(n3ccc(=O)[nH]c3=O)C(O)C2O)C(=O)N1C (stereo not drawn) [Compound II-H]	0.78	3.13	<0.20
CCCCCCCCCCCCCCNC(=O)C1=CCN(C)C(C(OC2OC(CNC(=O)OC(C)(C)C)C(O)C2O)C2OC(n3ccc(=O)[nH]c3=O)C(O)C2O)C(=O)N1C (stereo not drawn) [Compound II-I-N-Boc]	12.5	12.5	25
